Patent publication US12691056B2 (priority 2020, dated 2026)

Columns and labels:
[1] = cited from earlier work
[2] = aripiprazole intramuscular depot formulation; cited from earlier work
[3] = tested on: CYP1A1, CYP1A2, CYP2A6, CYP2B6, CYP2C8, CYP2C9, CYP2C19, or CYP2E1 enzymes; details: cited from earlier work
[4] = tested on: CYP3A4 and CYP2D6 enzymes; details: in vitro studies; cited from earlier work
[5] = Inter-Individual Variability (CV %)
[6] = final combined popPK model, Fixed

Row | Compound | share of aripiprazole AUC in plasma ([1]; at steady-state) | share of the parent drug exposure in plasma [2] | substrate of CYP1A1, CYP1A2, CYP2A6, CYP2B6, CYP2C8, CYP2C9, CYP2C19, or CYP2E1 enzymes [3] | lower apparent clearance in CYP2D6 poor metabolizers (CYP2D6 PM subjects) | IIV on Vc [5] | IIV on deltoid IM Ka [5] | IIV on gluteal IM Ka [5] | IIV on oral Ka (Inter-Individual Variability (CV %), Fixed) | CL Apparent clearance for subjects who are not poor CYP2D6 metabolizers [6] [Fixed L/hr] | CLpm Apparent clearance for subjects who are poor CYP2D6 metabolizers [6] [Fixed Lhr] | IM Ka_BMI Effect of BMI on IH Ka: power for (BMI/28) [6] [Fixed] | IM Ka_male Proportional shift of IM Ka for males [6] [Fixed] | IMKa Gluteal IM 1st order absorption safe constant [6] [h⁻¹] | Q1 Inter-compartmental clearance 1 [6] [Fixed L/hr] | Q2 Inter-compartmental clearance 2 [6] [Fixed L/hr] | absolute oral bioavailability ([1]; tablet formulation) | enzyme for N-dealkylation [4] | enzymes for dehydrogenation and hydroxylation [4]
1 | O=c1ccc2ccc(OCCCCN3CCN(c4cccc(Cl)c4Cl)CC3)cc2[nH]1 [dehydro-aripiprazole] | about 40% | about 29% |  |  |  |  |  |  |  |  |  |  |  |  |  |  |  | 
2 | O=C1CCc2ccc(OCCCCN3CCN(c4cccc(Cl)c4Cl)CC3)cc2N1 [aripiprazole, 7-[4-[4-(2,3-dichlorophenyl)-1-piperazinyl]butoxy]-3,4-dihydrocarbostyril] |  |  | not a substrate | approximately 50% | 2.18 (148%) | 0.237 (48.9%) | 0.359 (60.0%) | 0.434 (65.9%) | 3.71 | 1.88 | −0.975 | 0.346 | 0.000904 | 0.591 | 28.8 | about 87% | catalyzed by CYP3A4 | CYP3A4 and CYP2D6 enzymes are responsible
